22 molecules from patent US10980805B2, “Aza-pyridone compounds and uses thereof” (Janssen BioPharma, Inc., priority 2013, dated 2021) can be followed below.

What is called IC50 is the concentration needed to halve the response being measured. As usually defined, the EC50 is the concentration needed to bring the measured effect to its halfway point.

Experiment [1] deals with Full length EN PA (influenza PA endonuclease) (Influenza A virus, UniProt P15659). Description: EN PA FRET inhibition assay. The conditions noted are these: FRET probe, mean of a minimum of two independent experiments, read-out: Potency (IC50 class, Table 3). The class given is biochemical.
Experiment [2] concerns Influenza strain A549_A/WSN/33 (H1N1). Description: Influenza antiviral assay (neuraminidase fluorescence readout). The class given is cell-based, Influenza virus. Conditions: Influenza A virus, read-out: % Inhibition (EC50 class, Table 2).

With `CN1C[C@H](C(c2ccccc2)c2ccccc2)n2ncc(=O)c(O)c2C1=O` [Compound 1-A], the IC50 in experiment [1] is < 0.25 µM. In experiment [2], the EC50 is < 20 µM.

Turning to `CN1C[C@@H](C2c3ccc(Cl)cc3CCc3cc(Cl)ccc32)n2ncc(=O)c(O)c2C1=O` [Compound 46-B], in experiment [1], the half-maximal inhibitory concentration (IC50) is < 0.25 µM. The EC50 in experiment [2] lay within 20 to 100 µM.

Take `CC(C)N1CC(C2c3ccccc3CSc3ccccc32)n2ncc(=O)c(O)c2C1=O` (centres unmarked) [Compound 121]: the IC50 in experiment [1] is < 0.25 µM. Besides, the 50% effective concentration (EC50) in experiment [2] was < 20 µM.

With `CN1CC(C(c2cccc(C#N)c2)c2cccc(C#N)c2)n2ncc(=O)c(O)c2C1=O` (centres unmarked) [Compound 102], the IC50 in experiment [1] was < 0.25 µM. Moreover, the EC50 in experiment [2] lay within 20 to 100 µM.

Regarding `CC(C)N1C[C@@H]([C@@H](c2ccccc2)c2ccccn2)n2ncc(=O)c(O)c2C1=O` [Compound 138], in experiment [1], the half-inhibitory concentration (IC50) is < 0.25 µM. In addition, the EC50 in experiment [2] was < 20 µM.

`CCN1C[C@H](C(c2cccc(F)c2)c2cccc(F)c2)n2ncc(=O)c(OC(=O)C(C)C)c2C1=O` [Compound 72-A]: the IC50 in experiment [1] was < 0.25 µM. The EC50 in experiment [2] is < 20 µM.

Turning to `CCN1C[C@H](C2c3ccccc3CCc3ccccc32)n2ncc(=O)c(O)c2C1=O` [Compound 14-A], the IC50 in experiment [1] is < 0.25 µM. Also, in experiment [2], the EC50 was < 20 µM.

With `CC(C)N1CC(C2c3ccccc3CCc3ccccc32)n2ncc(=O)c(O)c2C1=O` (centres unmarked) [Compound 17], in experiment [1], the concentration for half-maximal inhibition (IC50) is < 0.25 µM. Also, in experiment [2], the EC50 was < 20 µM.

With `O=C1c2c(O)c(=O)cnn2[C@@H](C(c2ccccc2)c2ccccc2)CN1C1CCOCC1` [Compound 63-A], the IC50 in experiment [1] was < 0.25 µM. The EC50 in experiment [2] is < 20 µM.

With `CN1C[C@H](C2c3cc(Cl)ccc3CCc3ccc(Cl)cc32)n2ncc(=O)c(O)c2C1=O` [Compound 52-B], the IC50 in experiment [1] was < 0.25 µM. The EC50 in experiment [2] is < 20 µM.

Take `CC(C)C(=O)Oc1c2n(ncc1=O)[C@H](C1c3cccc(F)c3CCc3c(F)cccc31)CN(C(C)C)C2=O` [Compound 114-B]: the IC50 in experiment [1] was ≥ 1 µM. The EC50 in experiment [2] is < 20 µM.

Turning to `CN1C[C@H]([C@@H](c2ccccc2)n2ccnc2)n2ncc(=O)c(O)c2C1=O` [Compound 108-A], in experiment [1], the IC50 was < 0.25 µM. In experiment [2], the EC50 fell in the range of 20 to 100 µM.

For the molecule `Cc1cccc(C(c2ccccc2)C2CN(C(C)C)C(=O)c3c(O)c(=O)cnn32)c1` (centres unmarked) [Compound 50], the IC50 in experiment [1] was < 0.25 µM. Also, the EC50 in experiment [2] was < 20 µM.

As to `CCN1C[C@H]([C@H](c2ccccc2)c2cccc(Cl)c2)n2ncc(=O)c(O)c2C1=O` [Compound 12-B], the concentration for half-maximal inhibition (IC50) in experiment [1] is < 0.25 µM. Moreover, in experiment [2], the EC50 was < 20 µM.

Turning to `C#Cc1cn(C(c2ccccc2)C2CN(C)C(=O)c3c(O)c(=O)cnn32)cn1` (centres unmarked) [Compound 116], the IC50 in experiment [1] is < 0.25 µM. For the same molecule, the EC50 in experiment [2] is < 20 µM.

With `CN1CC(C(c2ccccc2)c2cccc(CC(N)=O)c2)n2ncc(=O)c(O)c2C1=O` (centres unmarked) [Compound 101], in experiment [1], the IC50 is < 0.25 µM. Besides, the EC50 in experiment [2] was 20 to 100 µM.

In the case of `CN1C[C@H]([C@@H]2c3cc(F)ccc3CCc3c(F)cccc32)n2ncc(=O)c(O)c2C1=O` [Compound 71-A], the half-maximal inhibitory concentration (IC50) in experiment [1] was < 0.25 µM. Moreover, in experiment [2], the concentration for a half-maximal effect (EC50) was < 20 µM.

As for `[2H]c1c([2H])c([2H])c(C(c2c([2H])c([2H])c([2H])c([2H])c2[2H])[C@H]2CN(C(C)C)C(=O)c3c(O)c(=O)cnn32)c([2H])c1[2H]` [Compound 129], the IC50 in experiment [1] was < 0.25 µM. The EC50 in experiment [2] is < 20 µM.

Take `CN1CC(C2c3ccccc3CCc3ccccc32)n2ncc(=O)c(O)c2C1=O` (centres unmarked) [Compound 7]: the IC50 in experiment [1] was < 0.25 µM. Further, the EC50 in experiment [2] was < 20 µM.

As for `CC(C)N1C[C@H]([C@@H](c2ccccc2)n2ccc(C#N)n2)n2ncc(=O)c(O)c2C1=O` [Compound 127-B], the IC50 in experiment [1] is < 0.25 µM. Moreover, in experiment [2], the concentration for a half-maximal effect (EC50) was < 20 µM.

`CN1CC(C2c3ccc(Cl)cc3CCc3cc(Cl)ccc32)n2ncc(=O)c(O)c2C1=O` (centres unmarked) [Compound 31]: the IC50 in experiment [1] was < 0.25 µM. In experiment [2], the EC50 was < 20 µM.

For `O=C1NCC(C2c3ccccc3CSc3c(Cl)cccc32)n2ncc(=O)c(O)c21` (centres unmarked) [Compound 10], the 50% inhibitory concentration (IC50) in experiment [1] is < 0.25 µM. Also, the EC50 in experiment [2] is < 20 µM.
